Measured values reported in PubChem BioAssay AID1259407 (Chemical Carcinogenesis Research Information System (CCRIS), 2018).
Activity calls are given as the source filed them. No rule for the calls is given here.

Tested on: CCRIS mutagenicity, Ames/micronucleus/aberration tests
Test: CCRIS mutagenicity studies

## CN(C)P(=O)(N(C)C)N(C)C
Test System: AMES SALMONELLA TYPHIMURIUM, Strain/Indicator: TA97, Metabolic Activation: HAMSTER LIVER S-9, AROCLOR 1254 (10 OR 30%), Method: PREINCUBATION
  mutagenic call: inactive; negative
Test System: AMES SALMONELLA TYPHIMURIUM, Strain/Indicator: TA97, Metabolic Activation: NONE, Method: PREINCUBATION
  mutagenic call: inactive; negative
Test System: AMES SALMONELLA TYPHIMURIUM, Strain/Indicator: TA97, Metabolic Activation: NONE, Method: STANDARD PLATE
  mutagenic call: inactive; negative
Test System: AMES SALMONELLA TYPHIMURIUM, Strain/Indicator: TA97, Metabolic Activation: RAT LIVER S-9, AROCLOR 1254 (10 OR 30%), Method: PREINCUBATION
  mutagenic call: inactive; negative
Test System: AMES SALMONELLA TYPHIMURIUM, Strain/Indicator: TA97, Metabolic Activation: RAT, LIVER, S-9, AROCLOR 1254, Method: STANDARD PLATE
  mutagenic call: inactive; negative
Test System: AMES SALMONELLA TYPHIMURIUM, Strain/Indicator: TA97, Metabolic Activation: RAT, LIVER, S-9, AROCLOR 1254, Method: SUSPENSION
  mutagenic call: active; positive
Test System: AMES SALMONELLA TYPHIMURIUM, Strain/Indicator: TA97, Metabolic Activation: S-9, Method: STANDARD PLATE
  mutagenic call: inactive; negative
Test System: AMES SALMONELLA TYPHIMURIUM, Strain/Indicator: TA98, Metabolic Activation: HAMSTER LIVER S-9, AROCLOR 1254 (10 OR 30%), Method: PREINCUBATION
  mutagenic call: inactive; negative
Test System: AMES SALMONELLA TYPHIMURIUM, Strain/Indicator: TA98, Metabolic Activation: NONE, Method: PREINCUBATION
  mutagenic call: inactive; negative
Test System: AMES SALMONELLA TYPHIMURIUM, Strain/Indicator: TA98, Metabolic Activation: NONE, Method: STANDARD PLATE
  mutagenic call: inactive; negative
Test System: AMES SALMONELLA TYPHIMURIUM, Strain/Indicator: TA98, Metabolic Activation: RAT LIVER S-9, AROCLOR 1254 (10 OR 30%), Method: PREINCUBATION
  mutagenic call: inactive; negative
Test System: AMES SALMONELLA TYPHIMURIUM, Strain/Indicator: TA98, Metabolic Activation: RAT, LIVER, S-9, AROCLOR 1254, Method: STANDARD PLATE
  mutagenic call: inactive; negative
Test System: AMES SALMONELLA TYPHIMURIUM, Strain/Indicator: TA98, Metabolic Activation: RAT, LIVER, S-9, AROCLOR 1254, Method: SUSPENSION
  mutagenic call: active; positive
Test System: AMES SALMONELLA TYPHIMURIUM, Strain/Indicator: TA98, Metabolic Activation: S-9, Method: STANDARD PLATE
  mutagenic call: inactive; negative
Test System: AMES SALMONELLA TYPHIMURIUM, Strain/Indicator: TA100, Metabolic Activation: HAMSTER LIVER S-9, AROCLOR 1254 (10 OR 30%), Method: PREINCUBATION
  mutagenic call: inactive; negative
Test System: AMES SALMONELLA TYPHIMURIUM, Strain/Indicator: TA100, Metabolic Activation: NONE, Method: PREINCUBATION
  mutagenic call: inactive; negative
Test System: AMES SALMONELLA TYPHIMURIUM, Strain/Indicator: TA100, Metabolic Activation: NONE, Method: STANDARD PLATE
  mutagenic call: inactive; negative
Test System: AMES SALMONELLA TYPHIMURIUM, Strain/Indicator: TA100, Metabolic Activation: NONE, Method: SUSPENSION
  mutagenic call: inactive; negative
Test System: AMES SALMONELLA TYPHIMURIUM, Strain/Indicator: TA100, Metabolic Activation: RAT LIVER S-9, AROCLOR 1254 (10 OR 30%), Method: PREINCUBATION
  mutagenic call: inactive; negative
Test System: AMES SALMONELLA TYPHIMURIUM, Strain/Indicator: TA100, Metabolic Activation: RAT, LIVER, S-9, AROCLOR 1254 (4, 10 OR 30%), Method: PREINCUBATION
  mutagenic call: inactive; negative
Test System: AMES SALMONELLA TYPHIMURIUM, Strain/Indicator: TA100, Metabolic Activation: RAT, LIVER, S-9, AROCLOR 1254 (10%), Method: STANDARD PLATE
  mutagenic call: inactive; negative
Test System: AMES SALMONELLA TYPHIMURIUM, Strain/Indicator: TA100, Metabolic Activation: RAT, LIVER, S-9, AROCLOR 1254, Method: PREINCUBATION
  mutagenic call: inactive; negative
Test System: AMES SALMONELLA TYPHIMURIUM, Strain/Indicator: TA100, Metabolic Activation: RAT, LIVER, S-9, AROCLOR 1254, Method: STANDARD PLATE
  mutagenic call: inactive; negative
Test System: AMES SALMONELLA TYPHIMURIUM, Strain/Indicator: TA100, Metabolic Activation: RAT, LIVER, S-9, AROCLOR 1254, Method: SUSPENSION
  mutagenic call: active; positive
Test System: AMES SALMONELLA TYPHIMURIUM, Strain/Indicator: TA100, Metabolic Activation: S-9, Method: STANDARD PLATE
  mutagenic call: inactive; negative
Test System: AMES SALMONELLA TYPHIMURIUM, Strain/Indicator: TA102, Metabolic Activation: NONE, Method: STANDARD PLATE
  mutagenic call: inactive; negative
Test System: AMES SALMONELLA TYPHIMURIUM, Strain/Indicator: TA102, Metabolic Activation: S-9, Method: STANDARD PLATE
  mutagenic call: inactive; negative
Test System: AMES SALMONELLA TYPHIMURIUM, Strain/Indicator: TA1535, Metabolic Activation: HAMSTER LIVER S-9, AROCLOR 1254 (10 OR 30%), Method: PREINCUBATION
  mutagenic call: inactive; negative
Test System: AMES SALMONELLA TYPHIMURIUM, Strain/Indicator: TA1535, Metabolic Activation: NONE, Method: PREINCUBATION
  mutagenic call: inactive; negative
Test System: AMES SALMONELLA TYPHIMURIUM, Strain/Indicator: TA1535, Metabolic Activation: NONE, Method: STANDARD PLATE
  mutagenic call: inactive; negative
Test System: AMES SALMONELLA TYPHIMURIUM, Strain/Indicator: TA1535, Metabolic Activation: RAT LIVER S-9, AROCLOR 1254 (10 OR 30%), Method: PREINCUBATION
  mutagenic call: inactive; negative
Test System: AMES SALMONELLA TYPHIMURIUM, Strain/Indicator: TA1535, Metabolic Activation: RAT, LIVER, S-9, AROCLOR 1254, Method: STANDARD PLATE
  mutagenic call: inactive; negative
Test System: AMES SALMONELLA TYPHIMURIUM, Strain/Indicator: TA1537, Metabolic Activation: NONE, Method: STANDARD PLATE
  mutagenic call: inactive; negative
Test System: AMES SALMONELLA TYPHIMURIUM, Strain/Indicator: TA1537, Metabolic Activation: RAT, LIVER, S-9, AROCLOR 1254, Method: STANDARD PLATE
  mutagenic call: inactive; negative
Test System: AMES SALMONELLA TYPHIMURIUM, Strain/Indicator: TA1537, Metabolic Activation: RAT, LIVER, S-9, AROCLOR 1254, Method: SUSPENSION
  mutagenic call: active; positive
Test System: AMES SALMONELLA TYPHIMURIUM, Strain/Indicator: TA1538, Metabolic Activation: NONE, Method: STANDARD PLATE
  mutagenic call: inactive; negative
Test System: AMES SALMONELLA TYPHIMURIUM, Strain/Indicator: TA1538, Metabolic Activation: RAT, LIVER, S-9, AROCLOR 1254, Method: STANDARD PLATE
  mutagenic call: inactive; negative
Test System: CHINESE HAMSTER OVARY, Strain/Indicator: CHO/6-THIOGUANINE, Metabolic Activation: HAMSTER EMBRYO CELL-MEDIATED
  mutagenic call: inactive; negative
Test System: CHINESE HAMSTER OVARY, Strain/Indicator: CHO/6-THIOGUANINE, Metabolic Activation: NONE
  mutagenic call: inactive; negative
Test System: CHINESE HAMSTER OVARY, Strain/Indicator: CHO/OUABAIN, Metabolic Activation: HAMSTER EMBRYO CELL-MEDIATED
  mutagenic call: inactive; negative
Test System: CHINESE HAMSTER OVARY, Strain/Indicator: CHO/OUABAIN, Metabolic Activation: NONE
  mutagenic call: inactive; negative
Test System: CHINESE HAMSTER V-79, Strain/Indicator: V-79 (HGPRT)/6-THIOGUANINE, Metabolic Activation: NONE
  mutagenic call: inactive; negative
Test System: CHINESE HAMSTER V-79, Strain/Indicator: V-79 (HGPRT)/6-THIOGUANINE, Metabolic Activation: RAT, LIVER, S-9, PHENOBARBITAL AND BETA-NAPHTHOFLAVONE
  mutagenic call: inactive; negative
Test System: CHINESE HAMSTER V-79, Strain/Indicator: V-79/6-THIOGUANINE, Metabolic Activation: NONE, Method: REPLATING
  mutagenic call: active; positive
Test System: CHINESE HAMSTER V-79, Strain/Indicator: V-79/OUABAIN, Metabolic Activation: HAMSTER EMBRYO CELL-MEDIATED
  mutagenic call: inactive; negative
Test System: CHINESE HAMSTER V-79, Strain/Indicator: V-79/OUABAIN, Metabolic Activation: RAT, LIVER, S-15, PHENOBARBITAL AND 5,6-BENZOFLAVONE
  mutagenic call: inactive; negative
Test System: MOUSE LYMPHOMA, Strain/Indicator: L5178Y (TK+/+)/OUABAIN, Metabolic Activation: NONE, Method: SUSPENSION/PLATE
  mutagenic call: active; positive
Test System: MOUSE LYMPHOMA, Strain/Indicator: L5178Y (TK+/-)/TRIFLUOROTHYMIDINE, Metabolic Activation: RAT LIVER S-9, AROCLOR 1254, Method: SUSPENSION/PLATE
  mutagenic call: inactive; negative
Test System: MOUSE LYMPHOMA, Strain/Indicator: L5178Y (TK+/-)/TRIFLUROTHYMIDINE, Metabolic Activation: NONE, Method: SUSPENSION/PLATE
  mutagenic call: active; positive
Test System: MOUSE LYMPHOMA, Strain/Indicator: L5178Y (TK+/TK-), Metabolic Activation: NONE, Method: MICROWELL
  mutagenic call: active; positive
Test System: MOUSE LYMPHOMA, Strain/Indicator: L5178Y (TK+/TK-), Metabolic Activation: RAT, LIVER, S-9, AROCLOR 1254, Method: SUSPENSION/PLATE
  mutagenic call: inactive; negative
Test System: MOUSE LYMPHOMA, Strain/Indicator: L5178Y (TK+/TK-), Metabolic Activation: RAT, LIVER, S-9, Method: SUSPENSION/PLATE
  mutagenic call: inactive; negative
Test System: MOUSE LYMPHOMA, Strain/Indicator: L5178Y (TK+/TK-), Metabolic Activation: S-9, Method: MICROWELL
  mutagenic call: active; positive
Test System: UDS RAT HEPATOCYTES, Strain/Indicator: THY INCORP, Metabolic Activation: NONE, Method: LIQUID SCINTILLATION COUNTING
  mutagenic call: active; positive
